A short description of the series: recombinant barcode read abundance after kanamycin selection (control-corrected) (log10(CPM+1)); higher = more efficient recombination; sequences stand for … in AGTGCAGAGAAAATCGGCCAGTTTTCTCTGCCTGCAGTCCGCATGCCGT…AGATTTATGCAGCGGACTGCCTTTCTCCCAAAGTGATAAACCGGACAGTATCATGGACCGGTTTTCCCGGTAATCCGTATTTGCAAGGTTGGTTTCACT; site = the 11-nt target. The method, boiled down:
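Values are log10(CPM+1) from a pooled E. coli screen of targets paired with IS621 bridge RNA target-binding loops. Recombination efficiency here means counts per million of recombinant-junction barcodes, averaged and control-corrected. Plates were chloramphenicol/ampicillin LB agar for the control and chloramphenicol/ampicillin/kanamycin with 0.1 mM IPTG, two replicates each.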
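Also: IS621 recombinase and bridge RNA in Escherichia coli cells.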

With “GTGAACTCTTGGGTTCTAACCTGTTGCCT (site GTTAACTCTAG)”, the “recombinant barcode read abundance (log10)” value amounted to 0.542.

For “GTGAGATCTTGGGTTCTAACCTGTTGCCT (site GTGAGATCTAG)”, the “recombinant barcode read abundance (log10)” value turned out to be 1.06.

In the case of “GTGAGATCTTGGGTTCTAACCTGTTGCCT (site GTGGAATCTAG)”, the “recombinant barcode read abundance (log10)” value is 0.079.

Regarding “GTGAGCCCTTGGGTTCTAACCTGTTGCCG (site GTGAGCCCTCG)”, the “recombinant barcode read abundance (log10)” value stood at 1.01.

Take “GTGAGCCCTTGGGTTCTAACCTGTTGCCG (site GTGCGCTCTCG)”: the “recombinant barcode read abundance (log10)” value was 0.0474.

Regarding “GTGAGTCCTTGGGTTCTAACCTGTTGCGG (site GTAAGTCCTTC)”, the “recombinant barcode read abundance (log10)” value is 0.24.

Consider “GTGAGTCCTTGGGTTCTAACCTGTTGCGG (site GTGAGTCCTCC)”, for which the “recombinant barcode read abundance (log10)” value was found to be 2.42.

Take “GTGATGTCTTGGGTTCTAACCTGTTGCCT (site GAGATGTCTAG)”: the “recombinant barcode read abundance (log10)” value amounted to 0.701.

For “GTGATGTCTTGGGTTCTAACCTGTTGCCT (site GCGATGTCTAG)”, the “recombinant barcode read abundance (log10)” value was determined as 0.321.

Turning to “GTGATGTCTTGGGTTCTAACCTGTTGCCT (site GGGATGTCTAG)”, the “recombinant barcode read abundance (log10)” value was 0.279.

With “GTGATGTCTTGGGTTCTAACCTGTTGCCT (site GTGATGTCTAG)”, the “recombinant barcode read abundance (log10)” value was found to be 2.17.

With “GTGCACTCTTGGGTTCTAACCTGTTGCGG (site GTGCACACTCC)”, the “recombinant barcode read abundance (log10)” value was determined as 0.

For the sequence “GTGCACTCTTGGGTTCTAACCTGTTGCGG (site GTGCACTCTCC)”, the “recombinant barcode read abundance (log10)” value is 2.13.

As to “GTGCTAACTTGGGTTCTAACCTGTTGCCA (site ATGCTAACTAG)”, the “recombinant barcode read abundance (log10)” value was 0.0637.

Turning to “GTGCTAACTTGGGTTCTAACCTGTTGCCA (site GTGCTAACTTG)”, the “recombinant barcode read abundance (log10)” value turned out to be 0.626.

On to “GTGGAAGCTTGGGTTCTAACCTGTTGCCA (site GTGAAAGCTTG)”, for which the “recombinant barcode read abundance (log10)” value was found to be 0.158.

As for “GTGGAAGCTTGGGTTCTAACCTGTTGCCA (site GTGGAAGCTTG)”, the “recombinant barcode read abundance (log10)” value was 0.238.

For “GTGGAGTCTTGGGTTCTAACCTGTTGCCT (site GTAGAGTCTAA)”, the “recombinant barcode read abundance (log10)” value turned out to be 0.577.

As to “GTGGAGTCTTGGGTTCTAACCTGTTGCCT (site GTGGAGTCTAG)”, the “recombinant barcode read abundance (log10)” value is 2.5.

In the case of “GTGGGAACTTGGGTTCTAACCTGTTGCTT (site GTGGGAACTAA)”, the “recombinant barcode read abundance (log10)” value stood at 1.97.

Consider “GTGGGAACTTGGGTTCTAACCTGTTGCTT (site TCCTATCCTTC)”, for which the “recombinant barcode read abundance (log10)” value is 0.0252.

As for “GTGGTACCTTGGGTTCTAACCTGTTGCAT (site ACACGGACTTA)”, the “recombinant barcode read abundance (log10)” value is 0.0235.

For the sequence “GTGGTACCTTGGGTTCTAACCTGTTGCAT (site GTGGTACCTAT)”, the “recombinant barcode read abundance (log10)” value was 2.48.

In the case of “GTGGTACCTTGGGTTCTAACCTGTTGCCT (site GTGGTAACTAG)”, the “recombinant barcode read abundance (log10)” value amounted to 0.885.

Regarding “GTGGTACCTTGGGTTCTAACCTGTTGCCT (site GTGGTACCTAG)”, the “recombinant barcode read abundance (log10)” value was 2.77.

In the case of “GTGGTACCTTGGGTTCTAACCTGTTGCCT (site GTGGTAGCTAG)”, the “recombinant barcode read abundance (log10)” value is 0.0565.

Take “GTGGTACCTTGGGTTCTAACCTGTTGCCT (site GTGGTATCTAG)”: the “recombinant barcode read abundance (log10)” value was 0.391.

In the case of “GTGGTTCCTTGGGTTCTAACCTGTTGCCT (site GTGGTTCCTAG)”, the “recombinant barcode read abundance (log10)” value was 1.61.

Take “GTGGTTCCTTGGGTTCTAACCTGTTGCCT (site GTTGGTCCTAG)”: the “recombinant barcode read abundance (log10)” value worked out at 0.112.

With “GTGTACCCTTGGGTTCTAACCTGTTGCCT (site GAGTACCCTAG)”, the “recombinant barcode read abundance (log10)” value turned out to be 0.64.

“GTGTACCCTTGGGTTCTAACCTGTTGCCT (site GCGTACCCTAG)”: the “recombinant barcode read abundance (log10)” value turned out to be 1.13.

For “GTGTACCCTTGGGTTCTAACCTGTTGCCT (site GGGTACCCTAG)”, the “recombinant barcode read abundance (log10)” value worked out at 0.068.

Consider “GTGTACCCTTGGGTTCTAACCTGTTGCCT (site GTGTACCCTAG)”, for which the “recombinant barcode read abundance (log10)” value was determined as 0.918.

As to “GTGTACCCTTGGGTTCTAACCTGTTGCGC (site GTGTACCCTAC)”, the “recombinant barcode read abundance (log10)” value turned out to be 0.587.

Consider “GTGTACCCTTGGGTTCTAACCTGTTGCGC (site GTGTACCCTCC)”, for which the “recombinant barcode read abundance (log10)” value worked out at 0.141.

In the case of “GTGTACCCTTGGGTTCTAACCTGTTGCGC (site GTGTACCCTGC)”, the “recombinant barcode read abundance (log10)” value amounted to 3.13.

On to “GTGTACCCTTGGGTTCTAACCTGTTGCGC (site GTGTACCCTTC)”, for which the “recombinant barcode read abundance (log10)” value worked out at 0.31.

As for “GTGTACCCTTGGGTTCTAACCTGTTGCGT (site GTGTACCCTAC)”, the “recombinant barcode read abundance (log10)” value is 3.59.

For “GTGTACCCTTGGGTTCTAACCTGTTGCGT (site GTGTACCCTCC)”, the “recombinant barcode read abundance (log10)” value is 1.66.

Consider “GTGTACCCTTGGGTTCTAACCTGTTGCGT (site GTGTACCCTGC)”, for which the “recombinant barcode read abundance (log10)” value is 2.29.

With “GTGTACCCTTGGGTTCTAACCTGTTGCGT (site GTGTACCCTTC)”, the “recombinant barcode read abundance (log10)” value stood at 0.185.

For the sequence “GTGTATACTTGGGTTCTAACCTGTTGCAT (site GTGTATACTAT)”, the “recombinant barcode read abundance (log10)” value turned out to be 0.589.

As for “GTGTATACTTGGGTTCTAACCTGTTGCAT (site TAACTAGCTTA)”, the “recombinant barcode read abundance (log10)” value worked out at 0.0503.

Turning to “GTGTATCCTTGGGTTCTAACCTGTTGCTT (site GTGCCTCCTAA)”, the “recombinant barcode read abundance (log10)” value was 0.0308.

With “GTGTATCCTTGGGTTCTAACCTGTTGCTT (site GTGTATCCTAA)”, the “recombinant barcode read abundance (log10)” value was determined as 0.664.

On to “GTGTCAACTTGGGTTCTAACCTGTTGCCT (site GTGTCAACTAG)”, for which the “recombinant barcode read abundance (log10)” value came to 0.343.

“GTGTCAACTTGGGTTCTAACCTGTTGCCT (site GTGTCACCTAG)”: the “recombinant barcode read abundance (log10)” value amounted to 0.0106.

Regarding “GTGTCAACTTGGGTTCTAACCTGTTGCCT (site GTGTCAGCTAG)”, the “recombinant barcode read abundance (log10)” value was found to be 0.0423.

For the sequence “GTGTCAACTTGGGTTCTAACCTGTTGCCT (site GTGTCATCTAG)”, the “recombinant barcode read abundance (log10)” value came to 0.0225.

Take “GTGTCAGCTTGGGTTCTAACCTGTTGCCT (site GTGTCAACTAG)”: the “recombinant barcode read abundance (log10)” value amounted to 0.166.

As to “GTGTCAGCTTGGGTTCTAACCTGTTGCCT (site GTGTCACCTAG)”, the “recombinant barcode read abundance (log10)” value is 0.383.

With “GTGTCAGCTTGGGTTCTAACCTGTTGCCT (site GTGTCAGCTAG)”, the “recombinant barcode read abundance (log10)” value was determined as 1.56.

“GTGTCAGCTTGGGTTCTAACCTGTTGCCT (site GTGTCATCTAG)”: the “recombinant barcode read abundance (log10)” value stood at 0.02.

In the case of “GTGTCATCTTGGGTTCTAACCTGTTGCCT (site GTGTCAACTAG)”, the “recombinant barcode read abundance (log10)” value came to 0.142.

“GTGTCATCTTGGGTTCTAACCTGTTGCCT (site GTGTCACCTAG)”: the “recombinant barcode read abundance (log10)” value turned out to be 0.0183.

Turning to “GTGTCATCTTGGGTTCTAACCTGTTGCCT (site GTGTCAGCTAG)”, the “recombinant barcode read abundance (log10)” value came to 0.0185.

For “GTGTCATCTTGGGTTCTAACCTGTTGCCT (site GTGTCATCTAG)”, the “recombinant barcode read abundance (log10)” value turned out to be 0.935.

In the case of “GTGTCCTCTTGGGTTCTAACCTGTTGCGT (site CAAAAGGCTCG)”, the “recombinant barcode read abundance (log10)” value was 0.039.

As for “GTGTCCTCTTGGGTTCTAACCTGTTGCGT (site GTGTCCTCTAC)”, the “recombinant barcode read abundance (log10)” value stood at 2.58.

As for “GTGTCTCCTTGGGTTCTAACCTGTTGCCG (site GTCTCTCCTCG)”, the “recombinant barcode read abundance (log10)” value turned out to be 0.0207.

With “GTGTCTCCTTGGGTTCTAACCTGTTGCCG (site GTGTCTCCTCG)”, the “recombinant barcode read abundance (log10)” value is 0.0325.

For the sequence “GTGTGTACTTGGGTTCTAACCTGTTGCCA (site GAGTGAACTTG)”, the “recombinant barcode read abundance (log10)” value was determined as 0.0252.

For the sequence “GTGTGTACTTGGGTTCTAACCTGTTGCCA (site GTGTGTACTTG)”, the “recombinant barcode read abundance (log10)” value is 0.488.

Consider “GTGTGTCCTTGGGTTCTAACCTGTTGCAT (site GTGTATCCTAT)”, for which the “recombinant barcode read abundance (log10)” value stood at 0.381.

Take “GTGTGTCCTTGGGTTCTAACCTGTTGCAT (site GTGTCTCCTAT)”: the “recombinant barcode read abundance (log10)” value worked out at 0.122.

With “GTGTGTCCTTGGGTTCTAACCTGTTGCAT (site GTGTGTCCTAT)”, the “recombinant barcode read abundance (log10)” value amounted to 1.7.

Turning to “GTGTGTCCTTGGGTTCTAACCTGTTGCAT (site GTGTTTCCTAT)”, the “recombinant barcode read abundance (log10)” value is 0.052.

For “GTGTTTCCTTGGGTTCTAACCTGTTGCAT (site GTGTATCCTAT)”, the “recombinant barcode read abundance (log10)” value came to 0.654.

On to “GTGTTTCCTTGGGTTCTAACCTGTTGCAT (site GTGTCTCCTAT)”, for which the “recombinant barcode read abundance (log10)” value came to 0.081.

As for “GTGTTTCCTTGGGTTCTAACCTGTTGCAT (site GTGTGTCCTAT)”, the “recombinant barcode read abundance (log10)” value is 0.0468.

“GTGTTTCCTTGGGTTCTAACCTGTTGCAT (site GTGTTTCCTAT)”: the “recombinant barcode read abundance (log10)” value came out at 0.832.

“GTTAACTCTTGGGTTCTAACCTGTTGCCT (site GTAAACTCTAG)”: the “recombinant barcode read abundance (log10)” value was 0.2.

For the sequence “GTTAACTCTTGGGTTCTAACCTGTTGCCT (site GTCAACTCTAG)”, the “recombinant barcode read abundance (log10)” value was 0.51.

“GTTAACTCTTGGGTTCTAACCTGTTGCCT (site GTGAACTCTAG)”: the “recombinant barcode read abundance (log10)” value was 0.34.

With “GTTAACTCTTGGGTTCTAACCTGTTGCCT (site GTTAACTCTAG)”, the “recombinant barcode read abundance (log10)” value was 0.877.

For the sequence “GTTACACCTTGGGTTCTAACCTGTTGCCT (site GTTACACCTAG)”, the “recombinant barcode read abundance (log10)” value amounted to 0.848.

As to “GTTACACCTTGGGTTCTAACCTGTTGCCT (site GTTTCACCTAG)”, the “recombinant barcode read abundance (log10)” value was found to be 0.187.

The record behind these values is the supplement of paper PMC11208160.
